Experimental findings from patent publication US20260125360A1, “HERBICIDAL IMIDAZOLE COMPOUNDS” (SYNGENTA CROP PROTECTION AG, priority 2022, published 2026) are described below.

What all share (type): in vivo
Common to all, as to conditions: 250 g/ha, evaluated after 13 days

Test [1] has as its system Amaranthus palmeri (AMAPA). The test is described as follows: Post-emergence herbicide glasshouse test. A digest of the protocol: (§1)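 Species sown in standard soil and sprayed 1 day (pre-emergence) or 8 days (post-emergence) after sowing, at 250 g/ha unless noted, in acetone/water (50:50) with 0.5% Tween 20. Glasshouse at 24/16 °C day/night, 14 h light, 65% humidity. Percentage damage scored after 13 days on a 1–5 scale (5=81–100%, 1=0–20%).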

The test system of test [2] is Amaranthus retoflexus (AMARE). The test is described as follows: Post-emergence herbicide glasshouse test. A digest of the protocol:
as §1

The subject of test [3] is Echinochloa crus-galli (ECHCG). Kind of test: Post-emergence herbicide glasshouse test. A digest of the protocol: as §1
Test [4] has as its system Ipomoea hederacea (IPOHE). Kind of test: Post-emergence herbicide glasshouse test. A digest of the protocol:
as §1

Test [5] deals with Amaranthus palmeri (AMAPA). Kind of test: Pre-emergence herbicide glasshouse test. A digest of the protocol: as §1
For test [6], the system named is Amaranthus retoflexus (AMARE). The test is described as follows: Pre-emergence herbicide glasshouse test. A digest of the protocol:
as §1

Test [7] concerns Echinochloa crus-galli (ECHCG). Kind of test: Pre-emergence herbicide glasshouse test. A digest of the protocol: as §1
Test [8] deals with Ipomoea hederacea (IPOHE). The test is described as follows: Pre-emergence herbicide glasshouse test. A digest of the protocol: as §1

With `Cc1nc(Cn2cc(C(F)(F)F)nc2-c2cnc(Cl)c(F)c2)no1` [Compound 1.167], the “percentage damage caused to the plant, AMAPA (five-point scale)” value in test [1] and in test [5] was 5 (5=81-100%) each time. Besides, the “percentage damage caused to the plant, AMARE (five-point scale)” value in test [2] and in test [6] was 5 (5=81-100%) throughout. The “percentage damage caused to the plant, ECHCG (five-point scale)” value in test [3] and in test [7] was 5 (5=81-100%) each time. For the same compound, the “percentage damage caused to the plant, IPOHE (five-point scale)” value in test [4] is recorded as 4 (4=61-80%); in test [8], 5 (5=81-100%).

As for `Cc1nc(Cn2cc(C(F)(F)F)nc2-c2ccc(F)c(F)c2)no1` [Compound 1.168], the “percentage damage caused to the plant, AMAPA (five-point scale)” value in test [1] and in test [5] was 5 (5=81-100%) in each case. The “percentage damage caused to the plant, AMARE (five-point scale)” value in test [2] and in test [6] was 5 (5=81-100%) each time. In addition, the “percentage damage caused to the plant, ECHCG (five-point scale)” value in test [3] and in test [7] was 5 (5=81-100%) in each case. Besides, the “percentage damage caused to the plant, IPOHE (five-point scale)” value in test [4] and in test [8] was 5 (5=81-100%) in each case.

As for `Cc1noc(Cn2cc(C(F)(F)F)nc2-c2ccc(F)c(F)c2)n1` [Compound 1.169], the “percentage damage caused to the plant, AMAPA (five-point scale)” value in test [1] and in test [5] was 5 (5=81-100%) throughout. The “percentage damage caused to the plant, AMARE (five-point scale)” value in test [2] and in test [6] was 5 (5=81-100%) each time. Also, the “percentage damage caused to the plant, ECHCG (five-point scale)” value in test [3] was 3 (3=41-60%); in test [7], 4 (4=61-80%). Moreover, the “percentage damage caused to the plant, IPOHE (five-point scale)” value in test [4] is 3 (3=41-60%); in test [8], 5 (5=81-100%).

Take `Cn1cnc(Cn2cc(C(F)(F)F)nc2-c2ccc(S(C)(=O)=O)cc2)n1` [Compound 1.170]: the “percentage damage caused to the plant, AMAPA (five-point scale)” value in test [1] and in test [5] was 5 (5=81-100%) in each case. The “percentage damage caused to the plant, AMARE (five-point scale)” value in test [2] and in test [6] was 5 (5=81-100%) each time. The “percentage damage caused to the plant, ECHCG (five-point scale)” value is on record as 2 (2=21-40%) in test [3] and 4 (4=61-80%) in test [7]. For the same compound, the “percentage damage caused to the plant, IPOHE (five-point scale)” value in test [4] was 3 (3=41-60%); in test [8] it was 5 (5=81-100%).

With `Cn1ccc(Cn2cc(C(F)(F)F)nc2-c2ccc(S(C)(=O)=O)cc2)n1` [Compound 1.171], the results for the “percentage damage caused to the plant, AMAPA (five-point scale)” value in test [1] and in test [5] were 1 (1=0-20%) and 4 (4=61-80%), respectively. The entries for the “percentage damage caused to the plant, AMARE (five-point scale)” value in test [2] and in test [6] were 1 (1=0-20%) and 4 (4=61-80%), respectively. The “percentage damage caused to the plant, ECHCG (five-point scale)” value in test [3] and in test [7] was 1 (1=0-20%) each time. The “percentage damage caused to the plant, IPOHE (five-point scale)” value was 2 (2=21-40%) in test [4] and 3 (3=41-60%) in test [8].

On to `CCON=Cc1cn(Cc2ncn(C)n2)c(-c2cnc(Cl)c(F)c2)n1` [Compound 1.172], for which the “percentage damage caused to the plant, AMAPA (five-point scale)” value in test [1] was 2 (2=21-40%); in test [5], 5 (5=81-100%). Besides, the “percentage damage caused to the plant, AMARE (five-point scale)” value in test [2] is 3 (3=41-60%); in test [6], 5 (5=81-100%). Further, the “percentage damage caused to the plant, ECHCG (five-point scale)” value is given as 2 (2=21-40%) in test [3] and 5 (5=81-100%) in test [7]. In addition, the results for the “percentage damage caused to the plant, IPOHE (five-point scale)” value in test [4] and in test [8] were 2 (2=21-40%) and 5 (5=81-100%), respectively.

Turning to `Fc1ccc(-c2nc(C(F)(F)F)cn2Cc2ccc(Cl)s2)cc1F` [Compound 1.173], the results for the “percentage damage caused to the plant, AMAPA (five-point scale)” value in test [1] and in test [5] were 4 (4=61-80%) and 5 (5=81-100%), respectively. For the same compound, the “percentage damage caused to the plant, AMARE (five-point scale)” value in test [2] and in test [6] was 5 (5=81-100%) in each case. Moreover, the “percentage damage caused to the plant, ECHCG (five-point scale)” value in test [3] was 2 (2=21-40%); in test [7] it was 1 (1=0-20%). Also, the “percentage damage caused to the plant, IPOHE (five-point scale)” value in test [4] and in test [8] was 1 (1=0-20%) throughout.

On to `Fc1cc(-c2nc(C(F)(F)F)cn2Cc2ccc(Cl)s2)cnc1Cl` [Compound 1.174], for which the “percentage damage caused to the plant, AMAPA (five-point scale)” value in test [1] and in test [5] was 5 (5=81-100%) in each case. Also, the “percentage damage caused to the plant, AMARE (five-point scale)” value in test [2] and in test [6] was 5 (5=81-100%) in each case. Moreover, the “percentage damage caused to the plant, ECHCG (five-point scale)” value in test [3] and in test [7] was 1 (1=0-20%) throughout. In addition, the figures for the “percentage damage caused to the plant, IPOHE (five-point scale)” value in test [4] and in test [8] were 2 (2=21-40%) and 1 (1=0-20%), respectively.

With `CS(=O)(=O)c1ccc(-c2nc(C(F)(F)F)cn2Cc2ccc(Cl)s2)cc1` [Compound 1.175], the “percentage damage caused to the plant, AMAPA (five-point scale)” value in test [1] and in test [5] was 4 (4=61-80%) throughout. Moreover, the results for the “percentage damage caused to the plant, AMARE (five-point scale)” value in test [2] and in test [6] were 4 (4=61-80%) and 5 (5=81-100%), respectively. In addition, the “percentage damage caused to the plant, ECHCG (five-point scale)” value in test [3] is 1 (1=0-20%); in test [7], 2 (2=21-40%). The “percentage damage caused to the plant, IPOHE (five-point scale)” value in test [4] is given as 2 (2=21-40%); in test [8], 1 (1=0-20%).

For the compound `Cc1noc(Cn2cc(C(F)(F)F)nc2-c2ccc(S(C)(=O)=O)cc2)n1` [Compound 1.176], the “percentage damage caused to the plant, AMAPA (five-point scale)” value in test [1] and in test [5] was 1 (1=0-20%) each time. Also, the “percentage damage caused to the plant, AMARE (five-point scale)” value in test [2] and in test [6] was 1 (1=0-20%) each time. The “percentage damage caused to the plant, ECHCG (five-point scale)” value in test [3] and in test [7] was 1 (1=0-20%) throughout. The “percentage damage caused to the plant, IPOHE (five-point scale)” value in test [4] and in test [8] was 1 (1=0-20%) each time.

For the compound `Cc1cc(Cn2cc(C(F)(F)F)nc2-c2ccc(S(C)(=O)=O)cc2)no1` [Compound 1.177], the “percentage damage caused to the plant, AMAPA (five-point scale)” value in test [1] and in test [5] was 5 (5=81-100%) each time. The “percentage damage caused to the plant, AMARE (five-point scale)” value in test [2] and in test [6] was 5 (5=81-100%) in each case. In addition, the results for the “percentage damage caused to the plant, ECHCG (five-point scale)” value in test [3] and in test [7] were 3 (3=41-60%) and 5 (5=81-100%), respectively. In addition, the “percentage damage caused to the plant, IPOHE (five-point scale)” value in test [4] and in test [8] was 5 (5=81-100%) throughout.

As for `Cc1nnc(Cn2cc(C(F)(F)F)nc2-c2ccc([S+](C)[O-])cc2)s1` (stereo not shown) [Compound 1.178], the “percentage damage caused to the plant, AMAPA (five-point scale)” value in test [1] is 1 (1=0-20%); in test [5], 3 (3=41-60%). Also, the “percentage damage caused to the plant, AMARE (five-point scale)” value in test [2] is 1 (1=0-20%); in test [6] it was 3 (3=41-60%). The “percentage damage caused to the plant, ECHCG (five-point scale)” value in test [3] and in test [7] was 1 (1=0-20%) throughout. The results for the “percentage damage caused to the plant, IPOHE (five-point scale)” value in test [4] and in test [8] were 1 (1=0-20%) and 4 (4=61-80%), respectively.

For the compound `CCON=Cc1cn(Cc2cc(C)on2)c(-c2cnc(Cl)c(F)c2)n1` [Compound 1.179], the “percentage damage caused to the plant, AMAPA (five-point scale)” value in test [1] is on record as 3 (3=41-60%); in test [5], 5 (5=81-100%). Also, the “percentage damage caused to the plant, AMARE (five-point scale)” value is 3 (3=41-60%) in test [2] and 4 (4=61-80%) in test [6]. Further, the “percentage damage caused to the plant, ECHCG (five-point scale)” value in test [3] and in test [7] was 1 (1=0-20%) in each case. Moreover, the “percentage damage caused to the plant, IPOHE (five-point scale)” value in test [4] and in test [8] was 1 (1=0-20%) throughout.

Regarding `CON=Cc1cn(Cc2ncn(C)n2)c(-c2cnc(Cl)c(F)c2)n1` [Compound 1.180], the “percentage damage caused to the plant, AMAPA (five-point scale)” value is 2 (2=21-40%) in test [1] and 4 (4=61-80%) in test [5]. The figures for the “percentage damage caused to the plant, AMARE (five-point scale)” value in test [2] and in test [6] were 1 (1=0-20%) and 5 (5=81-100%), respectively. Besides, the “percentage damage caused to the plant, ECHCG (five-point scale)” value in test [3] and in test [7] was 1 (1=0-20%) throughout. The “percentage damage caused to the plant, IPOHE (five-point scale)” value is given as 4 (4=61-80%) in test [4] and 5 (5=81-100%) in test [8].
